# According to patent US20240124503A1, “HETEROAROMATIC PHOSPHONIUM SALTS AND THEIR USE TREATING CANCER” (FLORATEK PHARMA S.A., priority 2021, published 2024):
# Experiments:
# Type in all cases: cell-based
# U-118 = assay: Cell viability assay, U-118; details: brain carcinoma cell line U-118
# Description: (§1) Antitumor activity of the compounds and doxorubicin as a positive control was assessed by using the CellTiter-Blue Cell Viability Assay (Promega, #G8082) or CellTiter-Glow® Luminescent Cell Viability assay (Promega #G7572) according to the manufacturer's instructions. The compounds were tested at 5 or 6 concentrations in half-log increments (highest concentration 30 μM or 100 μM) in duplicate or triplicate well conditions.
# (§2) Tumor cells were grown at 37° C. in a humidified atmosphere with 5% CO2 in RPMI 1640 or DMEM medium, supplemented with 10% (v/v) fetal calf serum and 50 μg/ml gentamicin for up to 20 passages, and were passaged once or twice weekly. Cells were harvested using TrypLE or PBS buffer containing 1 mM EDTA, and the percentage of viable cells was determined using a CASY Model TI cell counter (OMNI Life Science). Cells were harvested from exponential phase cultures, counted and plated in 96 well flat-bottom microtiter plates at a cell density depending on the cell line's growth rate (4,000-20,000 cells/well depending on the cell line's growth rate, up to 60,000 for hematological cancer cell lines) in RPMI 1640 or DMEM medium supplemented with 10% (v/v) fetal calf serum and 50 μg/ml gentamicin (140 μl/well). […] Viability of cells was quantified by the CellTiter-Blue® cell viability assay (Promega G8081) or CellTiter-Glow® Luminescent Cell Viability assay (Promega #G7572). […]
# MDA-MB-436 = assay: Cell viability assay, MDA-MB-436; details: Homo sapiens; breast carcinoma cell line MDA-MB-436
# Description: as §1, §2
# ZR-75-1 = assay: Cell viability assay, ZR-75-1; details: Homo sapiens; breast carcinoma cell line ZR-75-1
# Description: as §1, §2
# breast PDX = assay: Cell viability, breast PDX (panel statement); details: Table 5; read-out: IC50, growth of breast PDX
# Description: PDX-derived cell cultures were obtained from tumors explanted from mice and isolated by mechanical and enzymatic dissociation. […] Cells were harvested and seeded in 96-wells plates at a density of 1.25 to 5×10^3 cells/well for cytotoxicity assays. Cells were incubated 48 h at 37° C. prior to addition of test molecules and vehicle (DMSO, 0.1%) at desired final concentrations. Cell viability was assessed before drugs' addition (To) and 5 days after test molecules addition by measuring ATP cell content using CellTiter-Glo® Luminescent Cell Viability Assay (Promega) according to the manufacturer's instructions. Luciferase activity was measured on a luminometer (PerkinElmer® EnVision™). Each concentration of compounds was tested in triplicate.
# Viability was calculated as a percentage of ATP value compared to vehicle treated controls.
# For PDX primary cell cultures, the tumour tissue was washed with PBS containing antibiotic-antimycotic and non-tumour tissue and necrotic tumour tissues were separated. The tumour tissue was transferred to a new dish and cut into 1˜2 mm^3 fragments, resuspended in RPMI-1640 medium and centrifuged at 1,200 rpm for 6 min at room temperature. The pelleted material was resuspended with 15 mL of Tumour Cell Digestion Solution and incubated at 37° C. for 1 hour with agitation. […]
# pancreatic cancer cell = assay: Cell viability, pancreatic cancer cells (panel statement); details: text summary of Tables 18A and 18B, read-out: IC50, pancreatic cancer cell growth
# Description: as §1, §2
# prostate cancer cell = assay: Cell viability, prostate cancer cells (panel statement); details: summary of Table 20; read-out: IC50, prostate cancer cell growth
# Description: as §1, §2
structure (smiles),measurement,setting,value
"COc1c(O)ccc2c(=O)c(O)c(-c3ccc(CCCC[P+](c4ccccc4)(c4ccccc4)c4ccccc4)cc3)oc12 [SND190, (4-(4-(3,7-Dihydroxy-8-methoxy-4-oxo-4H1-chromen-2-yl)phenyl)butyl)triphenylphosphonium bromide]",IC50,U-118,9.4 µM
same,IC50,MDA-MB-436,2.9 µM
same,IC50,ZR-75-1,3.5 µM
same,IC50,breast PDX,< 20 µM
same,IC50,pancreatic cancer cell,< 20 µM
same,IC50,prostate cancer cell,< 10 µM
